Data as given in PubChem BioAssay (NCI).
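Each compound was tested at five concentrations against cells in 96-well plates for 48 hours. TGI is the concentration that stops growth completely.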

What was measured:
Assay in all cases: NCI-60 cell line screen, 48 h
NCI-H522 lung = tested on: NCI-H522 lung
PC-3 prostate = tested on: PC-3 prostate
IGROV1 ovarian = tested on: IGROV1 ovarian
SN12C renal = tested on: SN12C renal
K-562 leukemia = tested on: K-562 leukemia
SNB-75 CNS = tested on: SNB-75 CNS
HT29 colon = tested on: HT29 colon
HL-60(TB) leukemia = tested on: HL-60(TB) leukemia
SK-MEL-5 melanoma = tested on: SK-MEL-5 melanoma
RPMI-8226 leukemia = tested on: RPMI-8226 leukemia
NCI-H460 lung = tested on: NCI-H460 lung
LOX IMVI melanoma = tested on: LOX IMVI melanoma
A549 NSCLC = tested on: A549 NSCLC
HOP-62 NSCLC = tested on: HOP-62 NSCLC
TK-10 renal = tested on: TK-10 renal
OVCAR-5 ovarian = tested on: OVCAR-5 ovarian
SR leukemia = tested on: SR leukemia
DU-145 prostate = tested on: DU-145 prostate
MOLT-4 leukemia = tested on: MOLT-4 leukemia
SK-MEL-28 melanoma = tested on: SK-MEL-28 melanoma
NCI-H226 lung = tested on: NCI-H226 lung
MDA-MB-231 breast = tested on: MDA-MB-231 breast
UO-31 renal = tested on: UO-31 renal
OVCAR-8 ovarian = tested on: OVCAR-8 ovarian
BT-549 breast = tested on: BT-549 breast
MDA-MB-435 = tested on: MDA-MB-435
MALME-3M melanoma = tested on: MALME-3M melanoma
M14 melanoma = tested on: M14 melanoma
786-0 renal = tested on: 786-0 renal
NCI/ADR-RES ovarian = tested on: NCI/ADR-RES ovarian
CCRF-CEM leukemia = tested on: CCRF-CEM leukemia
SF-295 CNS = tested on: SF-295 CNS
HCT-15 colon = tested on: HCT-15 colon
RXF 393 renal = tested on: RXF 393 renal
T-47D breast = tested on: T-47D breast
SK-MEL-2 melanoma = tested on: SK-MEL-2 melanoma
HCT-116 colon = tested on: HCT-116 colon
MCF7 breast = tested on: MCF7 breast
MDA-N = tested on: MDA-N
COLO 205 colon = tested on: COLO 205 colon
OVCAR-4 ovarian = tested on: OVCAR-4 ovarian
HS 578T breast = tested on: HS 578T breast
KM12 colon = tested on: KM12 colon
ACHN renal = tested on: ACHN renal
NCI-H23 lung = tested on: NCI-H23 lung
HOP-92 NSCLC = tested on: HOP-92 NSCLC
UACC-257 melanoma = tested on: UACC-257 melanoma
SF-268 CNS = tested on: SF-268 CNS
EKVX NSCLC = tested on: EKVX NSCLC
A498 renal = tested on: A498 renal
HCC-2998 colon = tested on: HCC-2998 colon
SW-620 colon = tested on: SW-620 colon
UACC-62 melanoma = tested on: UACC-62 melanoma
U251 CNS = tested on: U251 CNS
OVCAR-3 ovarian = tested on: OVCAR-3 ovarian
SK-OV-3 ovarian = tested on: SK-OV-3 ovarian
SNB-19 CNS = tested on: SNB-19 CNS
SF-539 CNS = tested on: SF-539 CNS
CAKI-1 renal = tested on: CAKI-1 renal
SNB-78 CNS = tested on: SNB-78 CNS
M19-MEL melanoma = tested on: M19-MEL melanoma
KM20L2 colon = tested on: KM20L2 colon
DMS 273 small cell lung = tested on: DMS 273 small cell lung
HOP-18 NSCLC = tested on: HOP-18 NSCLC
DLD-1 colon = tested on: DLD-1 colon
LXFL 529 NSCLC = tested on: LXFL 529 NSCLC

## Oc1cc(-c2ccccc2)cn2c1nc1ccccc12
NCI-H522 lung
  TGI: > 25.1 µM
PC-3 prostate
  TGI: > 100 µM
IGROV1 ovarian
  TGI: > 38.8 µM
SN12C renal
  TGI: > 100 µM
K-562 leukemia
  TGI: > 100 µM
SNB-75 CNS
  TGI: > 100 µM
HT29 colon
  TGI: > 77.7 µM
HL-60(TB) leukemia
  TGI: 9.4 µM
SK-MEL-5 melanoma
  TGI: 29.7 µM
RPMI-8226 leukemia
  TGI: > 100 µM
NCI-H460 lung
  TGI: > 100 µM
LOX IMVI melanoma
  TGI: > 100 µM
A549 NSCLC
  TGI: > 100 µM
HOP-62 NSCLC
  TGI: > 52.6 µM
TK-10 renal
  TGI: > 100 µM
OVCAR-5 ovarian
  TGI: > 100 µM
SR leukemia
  TGI: > 28.5 µM
DU-145 prostate
  TGI: > 31.6 µM
MOLT-4 leukemia
  TGI: > 100 µM
SK-MEL-28 melanoma
  TGI: > 100 µM
NCI-H226 lung
  TGI: > 100 µM
MDA-MB-231 breast
  TGI: > 100 µM
UO-31 renal
  TGI: > 32.8 µM
OVCAR-8 ovarian
  TGI: > 54.3 µM
BT-549 breast
  TGI: > 100 µM
MDA-MB-435
  TGI: > 100 µM
MALME-3M melanoma
  TGI: > 100 µM
M14 melanoma
  TGI: > 100 µM
786-0 renal
  TGI: > 79.7 µM
NCI/ADR-RES ovarian
  TGI: 11.8 µM
CCRF-CEM leukemia
  TGI: > 100 µM
SF-295 CNS
  TGI: > 46.1 µM
HCT-15 colon
  TGI: > 100 µM
RXF 393 renal
  TGI: > 100 µM
T-47D breast
  TGI: > 100 µM
SK-MEL-2 melanoma
  TGI: > 100 µM
HCT-116 colon
  TGI: > 100 µM
MCF7 breast
  TGI: > 100 µM
MDA-N
  TGI: > 100 µM
COLO 205 colon
  TGI: > 100 µM
OVCAR-4 ovarian
  TGI: > 100 µM
HS 578T breast
  TGI: 47.7 µM
KM12 colon
  TGI: > 100 µM
ACHN renal
  TGI: > 100 µM
NCI-H23 lung
  TGI: > 100 µM
HOP-92 NSCLC
  TGI: > 100 µM
UACC-257 melanoma
  TGI: > 100 µM
SF-268 CNS
  TGI: > 100 µM
EKVX NSCLC
  TGI: > 100 µM
A498 renal
  TGI: > 100 µM
HCC-2998 colon
  TGI: > 100 µM
SW-620 colon
  TGI: > 100 µM
UACC-62 melanoma
  TGI: 19.5 µM
U251 CNS
  TGI: > 100 µM
OVCAR-3 ovarian
  TGI: > 100 µM
SK-OV-3 ovarian
  TGI: 6.09 µM
SNB-19 CNS
  TGI: > 100 µM
SF-539 CNS
  TGI: > 96.6 µM
CAKI-1 renal
  TGI: > 100 µM

## COc1ccc(/C=C/C(=O)/C=C/c2ccc(OC)cc2)cc1
NCI-H522 lung
  TGI: > 100 µM
PC-3 prostate
  TGI: > 100 µM
IGROV1 ovarian
  TGI: > 100 µM
SN12C renal
  TGI: > 100 µM
K-562 leukemia
  TGI: > 100 µM
SNB-75 CNS
  TGI: > 100 µM
HT29 colon
  TGI: > 100 µM
HL-60(TB) leukemia
  TGI: 53.7 µM
SK-MEL-5 melanoma
  TGI: > 100 µM
RPMI-8226 leukemia
  TGI: 55.9 µM
NCI-H460 lung
  TGI: > 100 µM
LOX IMVI melanoma
  TGI: > 100 µM
A549 NSCLC
  TGI: > 100 µM
HOP-62 NSCLC
  TGI: > 100 µM
TK-10 renal
  TGI: > 100 µM
OVCAR-5 ovarian
  TGI: > 100 µM
SR leukemia
  TGI: 68.4 µM
DU-145 prostate
  TGI: > 100 µM
MOLT-4 leukemia
  TGI: > 100 µM
SK-MEL-28 melanoma
  TGI: > 100 µM
NCI-H226 lung
  TGI: 98.3 µM
MDA-MB-231 breast
  TGI: > 100 µM
UO-31 renal
  TGI: > 100 µM
OVCAR-8 ovarian
  TGI: 31.4 µM
BT-549 breast
  TGI: > 100 µM
MDA-MB-435
  TGI: 29.6 µM
MALME-3M melanoma
  TGI: > 100 µM
M14 melanoma
  TGI: 57.2 µM
786-0 renal
  TGI: > 100 µM
NCI/ADR-RES ovarian
  TGI: > 100 µM
CCRF-CEM leukemia
  TGI: > 100 µM
SF-295 CNS
  TGI: > 100 µM
HCT-15 colon
  TGI: > 100 µM
RXF 393 renal
  TGI: 36.6 µM
T-47D breast
  TGI: > 100 µM
SK-MEL-2 melanoma
  TGI: > 100 µM
HCT-116 colon
  TGI: 23.3 µM
MCF7 breast
  TGI: > 100 µM
MDA-N
  TGI: 49 µM
COLO 205 colon
  TGI: 95.4 µM
OVCAR-4 ovarian
  TGI: > 100 µM
HS 578T breast
  TGI: > 100 µM
KM12 colon
  TGI: 59.6 µM
ACHN renal
  TGI: > 100 µM
NCI-H23 lung
  TGI: > 100 µM
HOP-92 NSCLC
  TGI: 80.6 µM
UACC-257 melanoma
  TGI: 41.3 µM
SF-268 CNS
  TGI: > 100 µM
EKVX NSCLC
  TGI: > 100 µM
A498 renal
  TGI: > 100 µM
HCC-2998 colon
  TGI: 15.7 µM
SW-620 colon
  TGI: 52.5 µM
UACC-62 melanoma
  TGI: > 100 µM
U251 CNS
  TGI: 68.6 µM
OVCAR-3 ovarian
  TGI: > 100 µM
SK-OV-3 ovarian
  TGI: > 100 µM
SNB-19 CNS
  TGI: > 100 µM
SF-539 CNS
  TGI: 72.7 µM
CAKI-1 renal
  TGI: > 100 µM

## N/C(=C\c1ccc(OCc2ccccc2)c(OCc2ccccc2)c1[N+](=O)[O-])C(=O)O
NCI-H522 lung
  TGI: > 100 µM
IGROV1 ovarian
  TGI: > 100 µM
SN12C renal
  TGI: > 100 µM
SNB-78 CNS
  TGI: > 100 µM
K-562 leukemia
  TGI: > 100 µM
SNB-75 CNS
  TGI: > 100 µM
HT29 colon
  TGI: > 100 µM
HL-60(TB) leukemia
  TGI: > 100 µM
SK-MEL-5 melanoma
  TGI: > 100 µM
RPMI-8226 leukemia
  TGI: > 100 µM
LOX IMVI melanoma
  TGI: > 100 µM
A549 NSCLC
  TGI: > 100 µM
M19-MEL melanoma
  TGI: > 100 µM
HOP-62 NSCLC
  TGI: > 100 µM
TK-10 renal
  TGI: > 100 µM
OVCAR-5 ovarian
  TGI: > 100 µM
SR leukemia
  TGI: > 100 µM
MOLT-4 leukemia
  TGI: > 100 µM
SK-MEL-28 melanoma
  TGI: > 100 µM
KM20L2 colon
  TGI: > 100 µM
NCI-H226 lung
  TGI: > 100 µM
UO-31 renal
  TGI: > 100 µM
OVCAR-8 ovarian
  TGI: > 100 µM
MALME-3M melanoma
  TGI: > 100 µM
DMS 273 small cell lung
  TGI: > 100 µM
M14 melanoma
  TGI: > 100 µM
786-0 renal
  TGI: > 100 µM
CCRF-CEM leukemia
  TGI: > 100 µM
SF-295 CNS
  TGI: > 100 µM
RXF 393 renal
  TGI: > 100 µM
SK-MEL-2 melanoma
  TGI: > 100 µM
HCT-116 colon
  TGI: > 100 µM
COLO 205 colon
  TGI: > 100 µM
HOP-18 NSCLC
  TGI: > 100 µM
KM12 colon
  TGI: > 100 µM
ACHN renal
  TGI: > 100 µM
NCI-H23 lung
  TGI: > 100 µM
HOP-92 NSCLC
  TGI: > 100 µM
DLD-1 colon
  TGI: > 100 µM
UACC-257 melanoma
  TGI: > 100 µM
LXFL 529 NSCLC
  TGI: > 100 µM
SF-268 CNS
  TGI: > 100 µM
EKVX NSCLC
  TGI: > 100 µM
A498 renal
  TGI: > 100 µM
HCC-2998 colon
  TGI: > 100 µM
SW-620 colon
  TGI: > 100 µM
UACC-62 melanoma
  TGI: > 100 µM
U251 CNS
  TGI: > 100 µM
OVCAR-3 ovarian
  TGI: > 100 µM
SK-OV-3 ovarian
  TGI: > 100 µM
SNB-19 CNS
  TGI: > 100 µM
SF-539 CNS
  TGI: > 100 µM
